The values below come from patent publication US11254671B2, “Chemical compounds” (GLAXOSMITHKLINE INTELLECTUAL PROPERTY DEVELOPMENT LIMITED, priority 2017, dated 2022).

The subject of this assay is type I collagen deposition in primary lung fibroblasts. Nature of the assay: Highthroughput type I collagen deposition (scar-in-a-jar) high content screening assay. The format is cell-based. Conditions: Homo sapiens, Primary lung fibroblast, 72 h, human pulmonary fibroblasts, TGF-β 1 ng/ml, Ficoll crowding, mean of multiple experiments, read-out: mean pIC50, inhibition of type I collagen deposition (converted). The protocol:
Example 53 Highthroughput Type I Collagen Deposition (Scar-in-a-Jar) High Content Screening Assay
Highthroughput, cellular type I collagen deposition was measured by adapting a published method; scar-in-a-jar (Chen et al., 2009) to primary lung fibroblasts derived from human tissue and combining with high content analysis to permit fluorescent quantification of collagen deposited in the extracellular matrix (ECM). The human biological samples were sourced ethically and their research use was in accord with the terms of the informed consents
Test compounds were dissolved in 100% DMSO to give 10 mM (stocks) and further diluted to give half log dilutions to generate an 11 point concentration response curve. 1 ul was transferred to 384-well plates (Greiner Group, Kremsmunster, Austria, Catalogue No Greine 781280r).
Human pulmonary fibroblasts were maintained in DMEM media (Gibco, Catalogue No 21969) supplemented with 4 mM L-glutamine (Gibco Catalogue No 25030-024) and 10% heat inactivated FBS (Gibco, Catalogue No 10099-141) at 37° C. in 10% CO2. Cells were harvested and resuspended at 4×10^6 cells/ml in a T175 cell culture flask (BD Falcom, Catalogue No: 353112) containing 50 mL of culture media. After 4 days 37° C. in 10% CO2, cells were harvested and seeded at 4000 cells per well (50 μL/well) into 384-well plates (BD Falcon, Catalogue No 353962Greiner) in assay media (0.4% heat inactivated FBS, 4 mM L-glutamine). Plates were sealed with breathable seals (Sigma, Catalogue No. BEM-1). Assay plates were incubated for 72 h at 37° C. in 10% CO2.
Assay media was supplemented with 112.5 mg/ml Ficoll 70 (Sigma, Catalogue No F2878), 75 mg/ml Ficoll 400 (Sigma, Catalogue No F4375) and 50 μg/ml ascorbic acid (Sigma, Catalogue No A8960). 30 μL assay media were added to 1 μl compound (37 μM compound concentration in 1% DMSO). Diluted compounds (10 μL) were transferred to plates containing cells and incubated for 3 h at 37° C. in 10% CO2. Transforming growth factor (TGF)-β (R&D systems, Catalogue No 100-B/CF) was reconstituted to give 10 μg/mL (stock) and further diluted in assay media containing Ficoll and ascorbic acid (1 in 3333). TGF-β was added to cell plates (1 ng/ml final) and cells incubated for 72 h at 37° C. in 10% CO2.
Media was aspirated from cells and 30 μL/well 100% ice-cold methanol added and incubated at RT for 5 min to fix cells. Methanol was aspirated and cells washed with PBS (3×). To block and permeabilise, cells were incubated with PBS containing 1% BSA and 0.1% Triton X 100 for 20 min, followed by PBS wash (3×). Cells were incubated with mouse anti human type I collagen monoclonal antibody (Sigma, Catalogue No C2456) diluted 1:1000 in PBS for 24 h at 4° C. Cells were washed with PBS containing 0.1% Tween-20 (3×) and incubated with secondary alexa fluor 488 goat-anti-mouse antibody (Invitrogen, Catalogue No A11001, 1 in 500 in PBS) and Hoechst 33342 (Sigma, Catalogue No H21492), 1 in 1000 in PBS) for 1 h at RT, prior to washing with PBS containing 0.1% Tween (×4).
Type I collagen immunoreactivity was detected using the INCell 2000 Analyzer (GE Healthcare, INcell 2000) set to excitation and emission wavelengths for DAPI and FITC with laser focus and exposure adjusted to appropriate levels. Images were imported and analysed using Columbus software (Perkin Elmer) and computational algorithms to quantify “total collagen area” and “cell count”.
Data analysis was performed by determining % inhibition values for test compounds relative to the minimum (media only) and maximum responses (TGF-βstimulation) with non-linear regression analysis to determine IC50 values for test compounds.

As for `CC[C@H]1COCCN1c1cc(CS(=O)(=O)N(C)C)cc(-c2ccc3[nH]c(CNC)cc3n2)n1` [Example 17, (S)-1-(2-(3-ethylmorpholino)-6-(2-((methylamino)methyl)-1H-pyrrolo[3,2-b]pyridin-5-yl)pyridin-4-yl)-N,N-dimethylmethanesulfonamide], the IC50 was 39.8 to 1000 nM. `CC[C@H]1COCCN1c1cc(C2(S(C)(=O)=O)CC2)cc(-c2ccc3[nH]c(CNC)cc3n2)n1` [Example 19, [(5-{6-[(3S)-3-ethylmorpholin-4-yl]-4-(1-methanesulfonylcyclopropyl)pyridin-2-yl}-1H-pyrrolo[3,2-b]pyridin-2-yl)methyl](methyl)amine]: the IC50 is 39.8 to 1000 nM. With `CNCc1cc2nc(-c3cc(C4(S(C)(=O)=O)CC4)cc(N4CCOC[C@@H]4C)n3)ccc2[nH]1` [Example 20, ({5-[4-(1-methanesulfonylcyclopropyl)-6-[(3S)-3-methylmorpholin-4-yl]pyridin-2-yl]-1H-pyrrolo[3,2-b]pyridin-2-yl}methyl)(methyl)amine], the IC50 is 39.8 to 1000 nM.

With `CC[C@H]1COCCN1c1cc(C(C)(C)S(C)(=O)=O)cc(-c2ccc3[nH]c(CN)cc3n2)n1` [Example 21, 1-(5-{6-[(3S)-3-ethylmorpholin-4-yl]-4-(2-methanesulfonylpropan-2-yl)pyridin-2-yl}-1H-pyrrolo[3,2-b]pyridin-2-yl)methanamine], the IC50 is 39.8 to 1000 nM.

On to `CC[C@H]1COCCN1c1cc(C2(S(C)(=O)=O)CCOCC2)cc(-c2ccc3[nH]c(CN)cc3n2)n1` [Example 23, 1-(5-{6-[(3S)-3-ethylmorpholin-4-yl]-4-(4-methanesulfonyloxan-4-yl)pyridin-2-yl}-1H-pyrrolo[3,2-b]pyridin-2-yl)methanamine], for which the IC50 was 39.8 to 1000 nM. With `CNCc1cc2nc(-c3cc(CS(C)(=O)=O)cc(N4CC5CCC(C4)O5)n3)ccc2[nH]1` [Example 25, ({5-[4-(methanesulfonylmethyl)-6-{8-oxa-3-azabicyclo[3.2.1]octan-3-yl}pyridin-2-yl]-1H-pyrrolo[3,2-b]pyridin-2-yl}methyl)(methyl)amine] the figure was 39.8 to 1000 nM. With `CC[C@H]1COCCN1c1cc(C(C)(C)S(N)(=O)=O)cc(-c2ccc3[nH]c(CNC)cc3n2)n1` [Example 28, 2-{2-[(3S)-3-ethylmorpholin-4-yl]-6-{2-[(methylamino)methyl]-1H-pyrrolo[3,2-b]pyridin-5-yl}pyridin-4-yl}propane-2-sulfonamide] the figure was 39.8 to 1000 nM. `CC[C@H]1COCCN1c1cc(CS(=O)(=O)NC)cc(-c2ccc3[nH]c(CNC)cc3n2)n1` [Example 30, 1-{2-[(3S)-3-ethylmorpholin-4-yl]-6-{2-[(methylamino)methyl]-1H-pyrrolo[3,2-b]pyridin-5-yl}pyridin-4-yl}-N-methylmethanesulfonamide]: the IC50 was 39.8 to 1000 nM. Take `CC[C@H]1COCCN1c1cc(C2(S(=O)(=O)N(C)C)CCOCC2)cc(-c2ccc3[nH]c(CNC)cc3n2)n1` [Example 31, 4-{2-[(3S)-3-ethylmorpholin-4-yl]-6-{2-[(methylamino)methyl]-1H-pyrrolo[3,2-b]pyridin-5-yl}pyridin-4-yl}-N,N-dimethyloxane-4-sulfonamide]: the IC50 is 39.8 to 100 nM. As to `CC[C@H]1COCCN1c1cc(C(C)(C)S(C)(=O)=O)cc(-c2ccc3[nH]c(CO)cc3n2)n1` [Example 32], the IC50 was 39.8 to 1000 nM. The figure for `CC[C@H]1COCCN1c1cc(C2(S(C)(=O)=O)CCOCC2)cc(-c2ccc3[nH]c(CO)cc3n2)n1` [Example 33, (5-{6-[(3S)-3-ethylmorpholin-4-yl]-4-(4-methanesulfonyloxan-4-yl)pyridin-2-yl}-1H-pyrrolo[3,2-b]pyridin-2-yl)methanol] is 39.8 to 1000 nM; for `CC[C@H]1COCCN1c1cc(CS(C)(=O)=O)cc(-c2ccc3[nH]c(CO)cc3n2)n1` [Example 34, (5-{6-[(3S)-3-ethylmorpholin-4-yl]-4-(methanesulfonylmethyl)pyridin-2-yl}-1H-pyrrolo[3,2-b]pyridin-2-yl)methanol] it is 39.8 to 1000 nM. For the molecule `CC[C@H]1COCCN1c1cc(CS(=O)(=O)N(C)C)cc(-c2ccc3[nH]c(CO)cc3n2)n1` [Example 35, 1-{2-[(3S)-3-ethylmorpholin-4-yl]-6-[2-(hydroxymethyl)-1H-pyrrolo[3,2-b]pyridin-5-yl]pyridin-4-yl}-N,N-dimethylmethanesulfonamide], the IC50 was 39.8 to 1000 nM. With `CNCc1cc2nc(-c3cc(C4(S(C)(=O)=O)CCOCC4)cc(N4C5CCC4COC5)n3)ccc2[nH]1` [Example 40, ({5-[4-(4-methanesulfonyloxan-4-yl)-6-{3-oxa-8-azabicyclo[3.2.1]octan-8-yl}pyridin-2-yl]-1H-pyrrolo[3,2-b]pyridin-2-yl}methyl)(methyl)amine] the figure was 39.8 to 1000 nM.
